Molecular target: T1, human TRPV4 (hTRPV4/CHO cells) (Homo sapiens, UniProt Q9HBA0)
T1 construct: expressed in transfected cells; host or cells: CHO-K1
Assay: Test Example 1: TRPV4 inhibitory activity (IC50 value), 4α-PDD stimulation, Fluo4 calcium fluorescence (FLIPR TETRA)
Type: cell-based
Conditions: Test Example 1, 4α-PDD stimulation, read-out: Test 1 IC50

T1 sequence (Q9HBA0 whole entry): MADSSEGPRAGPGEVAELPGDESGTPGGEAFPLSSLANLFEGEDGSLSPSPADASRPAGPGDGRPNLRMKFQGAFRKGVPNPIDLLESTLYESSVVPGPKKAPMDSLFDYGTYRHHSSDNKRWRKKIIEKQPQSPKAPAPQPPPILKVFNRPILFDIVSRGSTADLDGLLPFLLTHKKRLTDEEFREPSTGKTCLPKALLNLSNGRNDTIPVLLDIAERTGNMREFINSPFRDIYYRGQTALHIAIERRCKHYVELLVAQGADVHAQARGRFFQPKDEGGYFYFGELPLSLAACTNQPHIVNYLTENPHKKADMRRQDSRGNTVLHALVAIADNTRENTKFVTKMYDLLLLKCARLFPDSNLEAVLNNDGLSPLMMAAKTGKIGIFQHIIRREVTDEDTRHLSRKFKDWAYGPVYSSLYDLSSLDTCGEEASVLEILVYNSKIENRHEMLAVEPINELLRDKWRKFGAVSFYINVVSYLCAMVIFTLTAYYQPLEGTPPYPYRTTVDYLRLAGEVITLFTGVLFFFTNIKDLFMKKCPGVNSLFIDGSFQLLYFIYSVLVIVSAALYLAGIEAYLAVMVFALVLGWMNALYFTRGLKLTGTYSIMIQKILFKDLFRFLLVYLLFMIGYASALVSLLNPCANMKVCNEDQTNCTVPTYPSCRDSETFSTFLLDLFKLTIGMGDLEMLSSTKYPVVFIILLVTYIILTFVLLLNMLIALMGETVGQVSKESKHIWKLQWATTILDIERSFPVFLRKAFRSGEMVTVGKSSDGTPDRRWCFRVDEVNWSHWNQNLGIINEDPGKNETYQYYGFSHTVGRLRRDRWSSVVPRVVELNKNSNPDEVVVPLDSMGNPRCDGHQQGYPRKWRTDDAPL

| Compound | IC50 |
| --- | --- |
| Cc1nc(C(C)O)sc1-c1csc(NC(=O)[C@H]2C[C@H](F)C2)n1 (mixture of isomers) [Compound I-298] | 1000 to 8000 nM |
| Cc1nc(C(C)O)sc1-c1csc(NC(=O)[C@H]2C[C@@H](F)C2)n1 (mixture of isomers) [Compound I-299] | 1000 to 8000 nM |
| Cc1nc(C(C)O)oc1-c1csc(NC(=O)Cn2cc(C(F)(F)F)cn2)n1 (racemic) [Compound I-420] | 1000 to 8000 nM |
| CC(=O)NC(C)c1nc(CO)sc1-c1csc(NC(=O)Cc2ccc(S(=O)(=O)C(F)(F)F)cc2)n1 (racemic) [Compound I-472] | 1000 to 8000 nM |
| Cc1nc(C)c(-c2csc(NC(Cc3ccc(Cl)cc3)C(=O)NCc3ccccc3)n2)s1 (racemic) [II-43] | 1000 to 8000 nM |
| Cc1nc(C)c(-c2csc(NC(Cc3ccc(Cl)cc3)C(=O)Nc3ccccc3)n2)s1 (racemic) [II-44] | 1000 to 8000 nM |
| Cc1nc(C)c(-c2csc(NC(Cc3ccc(Cl)cc3)C(=O)N3CCN(C)CC3)n2)s1 (racemic) [II-45] | 1000 to 8000 nM |
| Cc1nc(C)c(-c2csc(NC(Cc3ccc(Cl)cc3)C(=O)NC3CCOCC3)n2)s1 (racemic) [II-46] | 1000 to 8000 nM |
| CC(OC(N)=O)c1nc(CO)sc1-c1csc(NC(=O)Cc2ccc(S(=O)(=O)C(F)(F)F)cc2)n1 (single isomer, unassigned) [Compound I-479] | 1000 to 8000 nM |
| Cc1nc(CO)sc1-c1csc(NC(=O)OC(C)(C)C)n1 [Compound I-30] | 1000 to 8000 nM |
| Cc1nc(C)c(-c2nc(NC(=O)Cc3c(F)cccc3F)sc2-c2ccncc2)s1 [Compound I-60] | 1000 to 8000 nM |
| Cc1nc(C)c(-c2nc(NC(=O)Cc3c(F)cccc3F)sc2-c2cnn(C)c2)s1 [Compound I-62] | 1000 to 8000 nM |
| Cc1nc(C)c(-c2nc(NC(=O)Cc3c(F)cccc3F)sc2-c2cccnc2)s1 [Compound I-63] | 1000 to 8000 nM |
| Cc1nc(C)c(-c2nc(NC(=O)Cc3c(F)cccc3F)sc2I)s1 [Compound I-65] | 1000 to 8000 nM |
| Cc1nc(C)c(-c2nc(NC(=O)Cc3c(F)cccc3F)sc2-c2ccccc2Cl)s1 [Compound I-66] | 1000 to 8000 nM |
| Cc1nc(C)c(-c2nc(NC(=O)Cc3c(F)cccc3F)sc2-c2ccc(N(C)C)cc2)s1 [Compound I-67] | 1000 to 8000 nM |
| Cc1nc(C)c(-c2nc(NC(=O)Cc3c(F)cccc3F)sc2-c2cccc(N(C)C)c2)s1 [Compound I-68] | 1000 to 8000 nM |
| Cc1nc(C)c(-c2nc(NC(=O)Cc3c(F)cccc3F)sc2-c2ccc(O)cc2)s1 [Compound I-69] | 1000 to 8000 nM |
| Cc1nc(C)c(-c2nc(NC(=O)Cc3c(F)cccc3F)sc2-c2cccc(O)c2)s1 [Compound I-70] | 1000 to 8000 nM |

| Compound | IC50 |
| --- | --- |
| C=C(C)c1sc(NC(=O)Cc2c(F)cccc2F)nc1-c1sc(C)nc1C [Compound I-71] | 1000 to 8000 nM |
| Cc1nc(C)c(-c2nc(NC(=O)Cc3c(F)cccc3F)sc2C)s1 [Compound I-72] | 1000 to 8000 nM |
| Cc1nc(C)c(-c2nc(NC(=O)Cc3c(F)cccc3F)sc2/C=C\c2ccccc2)s1 [Compound I-73] | 1000 to 8000 nM |
| Cc1nc(C)c(-c2nc(NC(=O)Cc3c(F)cccc3F)sc2CO)s1 [Compound I-74] | 1000 to 8000 nM |
| Cc1nc(C)c(-c2nc(NC(=O)Cc3c(F)cccc3F)sc2C(=O)Nc2ccccc2)s1 [Compound I-75] | 1000 to 8000 nM |
| Cc1nc(C)c(-c2nc(NC(=O)Cc3c(F)cccc3F)sc2C(=O)Nc2cccc(Cl)c2)s1 [Compound I-82] | 1000 to 8000 nM |
| Cc1nc(C)c(-c2nc(NC(=O)Cc3c(F)cccc3F)sc2C(=O)NCc2ccccc2)s1 [Compound I-83] | 1000 to 8000 nM |
| Cc1nc(C)c(-c2nc(NC(=O)Cc3c(F)cccc3F)sc2C(=O)Nc2ccc(C#N)cc2)s1 [Compound I-84] | 1000 to 8000 nM |
| Cc1nc(C)c(-c2nc(NC(=O)Cc3c(F)cccc3F)sc2C(=O)Nc2ccc(Cl)cc2)s1 [Compound I-85] | 1000 to 8000 nM |
| Cc1nc(C)c(-c2nc(NC(=O)Cc3c(F)cccc3F)sc2C(=O)Nc2ccccc2Cl)s1 [Compound I-86] | 1000 to 8000 nM |
| CCCCCCNC(=O)c1sc(NC(=O)Cc2c(F)cccc2F)nc1-c1sc(C)nc1C [Compound I-87] | 1000 to 8000 nM |
| Cc1nc(C)c(-c2csc(NC(=O)C3Cc4ccccc4C3)n2)s1 [Compound I-88] | 1000 to 8000 nM |
| Cc1nc(C)c(-c2csc(NC(=O)N3CCC(C(F)(F)F)CC3)n2)s1 [Compound I-89] | 1000 to 8000 nM |
| Cc1nc(C)c(-c2csc(NC(=O)N3CC(F)C3)n2)s1 [Compound I-90] | 1000 to 8000 nM |
| Cc1nc(C)c(-c2csc(NC(=O)N(C)c3c(F)cccc3F)n2)s1 [Compound I-91] | 1000 to 8000 nM |
| CC(=O)c1nc(C)c(-c2csc(NC(=O)Cc3c(F)cccc3F)n2)s1 [Compound I-98] | 100 to 1000 nM |
| Cc1nc(C)c(-c2csc(NC(=O)Cc3cccc(CN(C)C)c3)n2)s1 [Compound I-101] | 1000 to 8000 nM |
| Cc1nc(C)c(-c2csc(NC(=O)C(C)c3c(F)cccc3F)n2)s1 (stereo not drawn) [Compound I-102] | 100 to 1000 nM |
| Cc1nc(C)c(-c2csc(NC(=O)C(O)c3c(F)cccc3F)n2)s1 (stereo not drawn) [Compound I-103] | 1000 to 8000 nM |

More lines, now with the values ahead:

| IC50 | Compound |
| --- | --- |
| < 100 nM | CC(O)c1nc(CO)sc1-c1csc(NC(=O)Cc2ccc(S(=O)(=O)C(F)(F)F)cc2)n1 (racemic) [Compound I-235] |
| < 100 nM | Cc1nc(CO)sc1-c1csc(NC(=O)C2Oc3ccc(Cl)cc3O2)n1 (racemic) [Compound I-238] |
| 100 to 1000 nM | Cc1nc(CO)sc1-c1csc(NC(=O)CC2Cc3ccccc3C2)n1 (racemic) [Compound I-239] |
| < 100 nM | Cc1nc(C(C)O)sc1-c1csc(NC(=O)Cc2ccc(S(=O)(=O)C(F)(F)F)cc2)n1 (racemic) [Compound I-287] |
| 100 to 1000 nM | Cc1nc(C(C)O)oc1-c1csc(NC(=O)Cc2ccc(S(=O)(=O)C(F)(F)F)cc2)n1 (racemic) [Compound I-387] |
| < 100 nM | Cc1nc(C(C)O)sc1-c1csc(NC(=O)C2CN(c3ccc(C(F)(F)F)cc3)C2)n1 (racemic) [Compound I-467] |
| 100 to 1000 nM | Cc1nc(C(C)O)sc1-c1csc(NC(=O)C2CN(c3ccc(C(F)(F)F)cn3)C2)n1 (racemic) [Compound I-473] |
| 100 to 1000 nM | CC(OC(N)=O)c1nc(CO)sc1-c1csc(NC(=O)Cc2ccc(S(=O)(=O)C(F)(F)F)cc2)n1 (racemic) [Compound I-474] |
| 100 to 1000 nM | CC(O)c1nc(CO)c(-c2csc(NC(=O)Cc3ccc(S(=O)(=O)C(F)(F)F)cc3)n2)s1 (racemic) [Compound I-500] |
| < 100 nM | Cc1nc(C)c(-c2csc(NC(=O)C3(C)CCN(c4ccc(C(F)(F)F)cc4)CC3)n2)s1 (racemic) [Compound I-512] |
| < 100 nM | Cc1nc(C)c(-c2csc(NC(=O)C3(CC(=O)OC(C)(C)C)CN(c4ccc(C(F)(F)F)cc4)C3)n2)s1 (racemic) [Compound I-519] |
| < 100 nM | COc1cc(CC(=O)Nc2nc(-c3sc(C)nc3C)cs2)cc(C(=O)NC(C(C)C)C(F)(F)F)c1 (racemic) [Compound I-527] |
| 100 to 1000 nM | Cc1nc(C)c(-c2csc(NC(=O)C3(CCCO)CN(c4ccc(C(F)(F)F)cc4)C3)n2)s1 (racemic) [Compound I-529] |
| < 100 nM | Cc1nc(C)c(-c2csc(NC(=O)C3(COCc4ccccc4)CN(c4ccc(C(F)(F)F)cc4)C3)n2)s1 (racemic) [Compound I-530] |
| < 100 nM | COCC1(C(=O)Nc2nc(-c3sc(C)nc3C)cs2)CN(c2ccc(C(F)(F)F)cc2)C1 (racemic) [Compound I-531] |
| < 100 nM | Cc1nc(C)c(-c2csc(NC(=O)C3(CO)CN(c4ccc(C(F)(F)F)cc4)C3)n2)s1 (racemic) [Compound I-532] |
| < 100 nM | Cc1nc(C)c(-c2csc(NC(=O)C3(F)CN(c4ccc(C(F)(F)F)cc4)C3)n2)s1 (racemic) [Compound I-533] |
| 100 to 1000 nM | Cc1nc(C)c(-c2csc(NCC(O)c3ccccc3)n2)s1 (racemic) [II-39] |
| < 100 nM | Cc1nc(C)c(-c2csc(NCC3Cc4cc(Cl)ccc4O3)n2)s1 (racemic) [II-48] |

| IC50 | Compound |
| --- | --- |
| 100 to 1000 nM | CCCCOC(CNc1nc(-c2sc(C)nc2C)cs1)c1ccc(Cl)cc1 (racemic) [II-50] |
| 100 to 1000 nM | CC(OC(N)=O)c1nc(CO)sc1-c1csc(NC(=O)Cc2ccc(S(=O)(=O)C(F)(F)F)cc2)n1 (single isomer, unassigned) [Compound I-478] |
| 100 to 1000 nM | CC(=O)NC(C)c1nc(CO)sc1-c1csc(NC(=O)Cc2ccc(S(=O)(=O)C(F)(F)F)cc2)n1 (single isomer, unassigned) [Compound I-481] |
| 100 to 1000 nM | CC(=O)NC(C)c1nc(CO)sc1-c1csc(NC(=O)Cc2ccc(S(=O)(=O)C(F)(F)F)cc2)n1 (single isomer, unassigned) [Compound I-482] |
| 100 to 1000 nM | Cc1nc(C)c(-c2nc(NC(=O)Cc3c(F)cccc3F)sc2-c2cscn2)s1 [Compound I-61] |
| 100 to 1000 nM | Cc1nc(C)c(-c2nc(NC(=O)Cc3c(F)cccc3F)sc2-c2ccccc2O)s1 [Compound I-64] |
| < 100 nM | Cc1nc(CO)sc1-c1csc(NC(=O)Cc2c(F)cccc2F)n1 [Compound I-76] |
| < 100 nM | Cc1nc(C)c(-c2csc(NC(=O)Cc3cc(F)cc(C#N)c3)n2)s1 [Compound I-77] |
| < 100 nM | Cc1nc(C)c(-c2csc(NC(=O)Cc3ccc(F)c(C#N)c3)n2)s1 [Compound I-78] |
| 100 to 1000 nM | Cc1nc(C)c(-c2csc(NC(=O)Cc3cccc(S(C)(=O)=O)c3)n2)s1 [Compound I-79] |
| 100 to 1000 nM | CCS(=O)(=O)c1ccc(CC(=O)Nc2nc(-c3sc(C)nc3C)cs2)cc1 [Compound I-80] |
| 100 to 1000 nM | Cc1nc(C)c(-c2csc(NC(=O)Cc3ccc(S(C)(=O)=O)cc3F)n2)s1 [Compound I-92] |
| 100 to 1000 nM | Cc1[nH]c(=O)sc1-c1csc(NC(=O)Cc2c(F)cccc2F)n1 [Compound I-93] |
| 100 to 1000 nM | CCOC(=O)c1nc(C)c(-c2csc(NC(=O)Cc3c(F)cccc3F)n2)s1 [Compound I-94] |
| 100 to 1000 nM | Cc1nc(CO)c(-c2csc(NC(=O)Cc3c(F)cccc3F)n2)s1 [Compound I-96] |
| 100 to 1000 nM | Cc1nc(C(C)(C)O)sc1-c1csc(NC(=O)Cc2c(F)cccc2F)n1 [Compound I-97] |
| < 100 nM | COc1ccccc1CC(=O)Nc1nc(-c2sc(C)nc2C)cs1 [Compound I-99] |
| < 100 nM | Cc1nc(C)c(-c2csc(NC(=O)Cc3cccc(OC(F)(F)F)c3)n2)s1 [Compound I-100] |

— patent publication US20170066759A1, “AROMATIC 5-MEMBERED HETEROCYCLIC DERIVATIVE HAVING TRPV4-INHIBITING ACTIVITY” (Shionogi & Co., Ltd., priority 2012, published 2017)
